Measured values reported in patent publication US8049038B2, “Carnitine conjugates of adamantanamines derivatives as dual prodrugs for various uses” (priority 2006, dated 2011).

Columns and labels:
[1] = Toxicity observed in mice after subcutaneous administration in the NMDA test; assay type: in vivo; settings: male NIH-Swiss mice; 120 mg/kg SC; n=8 mice/group
Experimental: (§1) Memantine (30 mg/kg; SC) was used as a positive control in each experiment and there were n=8 mice/group for all conditions.

NMDA receptors = assay: NMDA-induced seizure activity and lethality in mice (in vivo test for NMDA antagonist activity); settings: male NIH-Swiss mice, 30 min before NMDA 200 mg/kg IP
Excerpt: Compounds 3-(3,5-dimethyladamantan-1-ylcarbamoyl)-(R)-2-hydroxypropyl)-trimethyl ammonium chloride [Formula 1(B); R1 and R2 are CH3; n=0], and 3-benzyloxycarbonyl-(R)-2-{[(3,5-dimethyladamantan-1-ylcarbamoyl)-propionyloxy]propyl}-trimethyl ammonium bromide [Formula 4(B); R1 and R2 are CH3; n=0; R3, R4, R5, R6 are hydrogen; and R^2 is a benzyl group] were selected for in vivo testing in mice, since both are potential prodrugs for memantine and L-carnitine through in vivo enzymatic hydrolysis of either an amide or ester linkages. Since memantine has N-methyl-D-aspartate (NMDA) antagonist properties, it was assumed that the above compounds would share these properties and therefore a test was utilized that identifies NMDA antagonist activity in vivo. Briefly, this test measures seizure activity and lethality in mice produced by the administration of NMDA […] which block these parameters in a dose-dependent manner (see Leander, J. D., et al., Brain Res. 448, 115-120 (1988), N-methyl-D-aspartate acid-induced lethality in mice: selective antagonism by phencyclidine-like drugs; Parsons, C. G., et al., Neuropharmacol. 34, 1239-1258 (1995).
as §1

| Compound | toxicity [1] | activity in NMDA-induced seizure/lethality test (NMDA receptors; 60 mg/kg SC) | time to lethality (NMDA receptors; 120 mg/kg SC, observed 30 min) | time to produce clonic seizures (NMDA receptors; 90 mg/kg SC, observed 30 min) | time to produce death (NMDA receptors; 90 mg/kg SC, observed 30 min) |
| --- | --- | --- | --- | --- | --- |
| CC12CC3CC(C)(C1)CC(NC(=O)C[C@@H](O)C[N+](C)(C)C)(C3)C2.[Cl-] [[3-(3,5-Dimethyl-adamantan-1-ylcarbamoyl)-(R)-2-hydroxy-propyl]-trimethylammonium chloride] | tremors, lethality in n=3 mice | inactive | slightly increased |  |  |
| CC12CC3CC(C)(C1)CC(NC(=O)CCC(=O)O[C@H](CC(=O)OCc1ccccc1)C[N+](C)(C)C)(C3)C2.[Br-] [{3-Benzyloxycarbonyl-(R)-2-[3-(3,5-Dimethyladamantan-1-ylcarbamoyl)-propionyloxy]-propyl}-trimethylammonium bromide] |  |  |  | markedly increased | markedly increased |
